In patent publication US20260092074A1, “Annelated Pyridines as Steroidogenesis Inhibitors, Preparation Method and Use Thereof” (Guangzhou Vinnocent Pharmaceutical Limited, priority 2022, published 2026):

Key:
human CYP11B2 = target: T1, human CYP11B2 (Homo sapiens, UniProt P19099); assay: Inhibition of hCYP11B2 in transfected V79 cells; assay type: cell-based; conditions: hamster V79 cells expressing human CYP11B2; substrate 11-deoxycorticosterone 200 nM
T1 construct: expressed in transfected cells
T1 sequence (P19099 25-503): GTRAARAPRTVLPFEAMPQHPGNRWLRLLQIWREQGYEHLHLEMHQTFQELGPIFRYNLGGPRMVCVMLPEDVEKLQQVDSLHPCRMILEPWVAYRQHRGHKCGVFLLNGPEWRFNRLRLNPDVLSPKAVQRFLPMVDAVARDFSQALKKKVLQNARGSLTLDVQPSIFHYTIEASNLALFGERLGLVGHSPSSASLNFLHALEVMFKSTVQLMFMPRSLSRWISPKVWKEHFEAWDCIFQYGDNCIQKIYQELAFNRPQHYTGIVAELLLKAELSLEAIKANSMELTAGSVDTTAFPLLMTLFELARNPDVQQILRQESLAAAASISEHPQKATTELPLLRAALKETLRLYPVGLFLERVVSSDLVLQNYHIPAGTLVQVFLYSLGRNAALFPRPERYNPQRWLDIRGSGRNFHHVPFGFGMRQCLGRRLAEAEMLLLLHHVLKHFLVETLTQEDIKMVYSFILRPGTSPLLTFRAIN
Experimental: (§1) Genes of human CYP11B2 and rat NADPH-P450 reductase were transfected into hamster V79 cells using a lentivirus vector, and stably-expressing cell lines were selected by taking advantages of the associated puromycin-resistance gene. Cultured cells were diluted and seeded in a 96-well plate with an amount of approximately 10,000 per well. After pre-incubation with suitable concentrations of the test compounds for 2 hours, 11-deoxycorticosterone of 200 nM was added as the substrate to initiate the catalytic reaction. After further incubation for 30 minutes, it was quenched with ethyl acetate. Subsequently, the substrate and product(s) were quantified using LC-MS/MS or HPLC at 260 nm, and the IC50 values were calculated according to inhibitory percentage.

human CYP11B1 = target: T2, human CYP11B1 (Homo sapiens, UniProt P15538); assay: Inhibition of hCYP11B1 in transfected V79 cells; assay type: cell-based; conditions: hamster V79 cells expressing human CYP11B1; substrate 11-deoxycortisol 200 nM
T2 construct: expressed in transfected cells
T2 sequence (P15538 25-503): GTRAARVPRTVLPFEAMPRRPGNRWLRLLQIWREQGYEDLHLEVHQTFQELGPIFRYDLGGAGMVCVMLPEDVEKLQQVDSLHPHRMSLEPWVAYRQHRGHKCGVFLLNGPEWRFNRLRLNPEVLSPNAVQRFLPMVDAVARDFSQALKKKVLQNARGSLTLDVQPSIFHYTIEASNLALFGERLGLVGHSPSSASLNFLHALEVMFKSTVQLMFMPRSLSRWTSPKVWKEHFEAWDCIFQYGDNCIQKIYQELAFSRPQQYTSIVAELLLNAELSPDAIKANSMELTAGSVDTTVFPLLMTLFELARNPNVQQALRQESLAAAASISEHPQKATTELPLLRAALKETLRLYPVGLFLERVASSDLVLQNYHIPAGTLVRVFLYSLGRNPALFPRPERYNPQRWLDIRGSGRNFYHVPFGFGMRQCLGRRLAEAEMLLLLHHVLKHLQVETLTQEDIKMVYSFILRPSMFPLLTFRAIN
Experimental: as §1, with “CYP11B1” for “CYP11B2”, “11-deoxycortisol” for “11-deoxycorticosterone”

| Compound | IC50 (human CYP11B2) [µM] | IC50 (human CYP11B1) [µM] |
| --- | --- | --- |
| Cc1cccc(S(=O)(=O)N2CC(C(=O)N3CCOc4c(-c5ccc(C#N)cc5)cncc43)C2)c1 [O70, 4-(4-(1-(m-Tolylsulfonyl)azetidine-3-carbonyl)-3,4-dihydro-2H-pyrido[4,3-b][1,4]oxazin-8-yl)benzonitrile] | 0.0014 | 0.0316 |
| COc1ccc(S(=O)(=O)N2CCSc3c(-c4ccc(C#N)cc4)cncc32)cc1 [S13, 4-(4-((4-Methoxyphenyl)sulfonyl)-3,4-dihydro-2H-pyrido[4,3-b][1,4]thiazin-8-yl)benzonitrile] | 0.0001 | 0.0012 |
| Cc1ccc(S(=O)(=O)N2CCSc3c(-c4ccc(C#N)cc4)cncc32)cc1 [S12, 4-(4-Tosyl-3,4-dihydro-2H-pyrido[4,3-b][1,4]thiazin-8-yl)benzonitrile] | 0.00018 | 0.0028 |
| O=C(c1ccc(F)cc1)n1ccc2c(-c3ccn4ccnc4c3)cncc21 [E39, (4-Fluorophenyl)(4-(imidazo[1,2-a]pyridin-7-yl)-1H-pyrrolo[2,3-c]pyridin-1-yl)methanone] | 0.012 | 0.678 |
| N#Cc1ccc(-c2cncc3c2SCCN3S(=O)(=O)C2CN(Cc3cccc(F)c3)C2)cc1 [S83, 4-(4-((1-(3-Fluorobenzyl)azetidin-3-yl)sulfonyl)-3,4-dihydro-2H-pyrido[4,3-b][1,4]thiazin-8-yl)benzonitrile] | 0.0008 | 0.021 |
| CC(=O)Nc1ccccc1C(=O)N1CCSc2c(-c3ccc(C#N)cc3)cncc21 [S86, N-(2-(8-(4-Cyanophenyl)-3,4-dihydro-2H-pyrido[4,3-b][1,4]thiazine-4-carbonyl)phenyl) acetamide] | 0.022 | 1.54 |
| N#Cc1ccc(-c2cncc3c2CCN3S(=O)(=O)c2cccc3ccccc23)cc1 [C18, 4-(1-(Naphthalen-1-ylsulfonyl)-2,3-dihydro-1H-pyrrolo[2,3-c]pyridin-4-yl)benzonitrile] | 0.00069 | 0.00061 |
| N#Cc1ccc2[nH]c(-c3cncc4c3CCN4C(=O)C3CN(Cc4cccc(F)c4)C3)cc2c1 [C81, 2-(1-(1-(3-Fluorobenzyl)azetidine-3-carbonyl)-2,3-dihydro-1H-pyrrolo[2,3-c]pyridin-4-yl)-1H-indole-5-carbonitrile] | 0.015 | 0.438 |
| N#Cc1ccc(-c2cncc3c2OCCN3C(=O)N2CC(Cc3cccc(F)c3)C2)cc1 [O136, 4-(4-(3-(3-Fluorobenzyl)azetidine-1-carbonyl)-3,4-dihydro-2H-pyrido[4,3-b][1,4]oxazin-8-yl)benzonitrile] | 0.022 | 2.02 |
| N#Cc1ccc(-c2cncc3c2OCCN3C(=O)Cc2cccc(F)c2)cc1 [O37, 4-(4-(2-(3-Fluorophenyl)acetyl)-3,4-dihydro-2H-pyrido[4,3-b][1,4]oxazin-8-yl)benzonitrile] | 0.0014 | 0.086 |
| COc1ccc(S(=O)(=O)N2CCSc3c(-c4cccc(F)c4)cncc32)cc1 [S31, 8-(3-Fluorophenyl)-4-((4-methoxyphenyl)sulfonyl)-3,4-dihydro-2H-pyrido[4,3-b][1,4]thia zine] | 0.0059 | 0.136 |
| N#Cc1ccc(-c2cncc3c2OCCN3C(=O)C2CN(S(=O)(=O)c3ccc(C#N)cc3)C2)cc1 [O69, 4-((3-(8-(4-Cyanophenyl)-3,4-dihydro-2H-pyrido[4,3-b][1,4]oxazine-4-carbonyl)azetidin-1-yl)sulfonyl)benzonitrile] | 0.0021 | 0.057 |
| O=C(c1ccccc1F)N1CCc2c(-c3ccc(Cl)cc3)cncc21 [C54, (4-(4-Chlorophenyl)-2,3-dihydro-1H-pyrrolo[2,3-c]pyridin-1-yl)(2-fluorophenyl)methanone] | 0.045 | 0.895 |
| N#Cc1ccc(-c2cncc3c2OCCN3C(=O)C2CNC2)cc1 [O56, 4-(4-(Azetidine-3-carbonyl)-3,4-dihydro-2H-pyrido[4,3-b][1,4]oxazin-8-yl)benzonitrile] | 0.0051 | 0.292 |
| COc1cccc(S(=O)(=O)N2CCc3c(-c4ccc(C#N)cc4)cncc32)c1 [C19, 4-(1-((3-Methoxyphenyl)sulfonyl)-2,3-dihydro-1H-pyrrolo[2,3-c]pyridin-4-yl)benzonitrile] | 0.0043 | 0.0095 |
| COc1cccc(S(=O)(=O)N2CC(C(=O)N3CCOc4c(-c5ccc(C#N)cc5)cncc43)C2)c1 [O66, 4-(4-(1-((3-Methoxyphenyl)sulfonyl)azetidine-3-carbonyl)-3,4-dihydro-2H-pyrido[4,3-b][1, 4]oxazin-8-yl)benzonitrile] | 0.0045 | 0.495 |
| N#Cc1ccc(-c2cncc3c2SCCN3C(=O)c2cccc(Cl)c2)cc1 [S93, 4-(4-(3-Chlorobenzoyl)-3,4-dihydro-2H-pyrido[4,3-b][1,4]thiazin-8-yl)benzonitrile] | 0.024 | 1.31 |
| N#Cc1ccc(-c2cncc3c2SCCN3S(=O)(=O)C2CN(S(=O)(=O)c3ccc(F)cc3)C2)cc1 [S74, 4-(4-((1-((4-Fluorophenyl)sulfonyl)azetidin-3-yl)sulfonyl)-3,4-dihydro-2H-pyrido[4,3-b][1,4]thiazin-8-yl)benzonitrile] | 0.0017 | 0.022 |
| N#Cc1ccc(-c2cncc3c2OCCN3C(=O)C2CN(Cc3cccc(C#N)c3)C2)cc1 [O80, 3-((3-(8-(4-Cyanophenyl)-3,4-dihydro-2H-pyrido[4,3-b][1,4]oxazine-4-carbonyl)azetidin-1-yl)methyl)benzonitrile] | 0.001 | 0.185 |
| Cn1c(=O)c(=O)[nH]c2cncc(-c3ccc(C#N)cc3)c21 [N1, 4-(1-Methyl-2,3-dioxo-1,2,3,4-tetrahydropyrido[3,4-b]pyrazin-8-yl)benzonitrile] | 0.372 | 0.409 |
| N#Cc1ccc(-c2cncc3c2SCCN3S(=O)(=O)c2ccc(F)cc2)cc1 [S10, 4-(4-((4-Fluorophenyl)sulfonyl)-3,4-dihydro-2H-pyrido[4,3-b][1,4]thiazin-8-yl)benzonitrile] | 0.0001 | 0.0008 |
| N#Cc1ccc(-c2cncc3c2SCCN3S(=O)(=O)c2ccc(C(F)(F)F)cc2)cc1 [S17, 4-(4-((4-(Trifluoromethyl)phenyl)sulfonyl)-3,4-dihydro-2H-pyrido[4,3-b][1,4]thiazin-8-yl) benzonitrile] | 0.0004 | 0.0102 |
| N#Cc1ccc(-c2cncc3c2ccn3S(=O)(=O)c2ccc3ccccc3c2)cc1 [E16, 4-(1-(Naphthalen-2-ylsulfonyl)-1H-pyrrolo[2,3-c]pyridin-4-yl)benzonitrile] | 0.0001 | 0.0006 |
| N#Cc1ccc(-c2cncc3c2OCCN3S(=O)(=O)C2CN(c3cccc(F)c3)C2)cc1 [O126, 4-(4-((1-(3-Fluorophenyl)azetidin-3-yl)sulfonyl)-3,4-dihydro-2H-pyrido[4,3-b][1,4]oxazin-8-yl)benzonitrile] | 0.003 | 0.126 |
| N#Cc1ccc(-c2cncc3c2OCCN3C(=O)C2CN(c3cccc(F)c3)C2)cc1 [O84, 4-(4-(1-(3-Fluorophenyl)azetidine-3-carbonyl)-3,4-dihydro-2H-pyrido[4,3-b][1,4]oxazin-8-yl)benzonitrile] | 0.0016 | 0.053 |
| N#Cc1ccc(-c2cncc3c2OCCN3S(=O)(=O)C2CC(c3cccc(C#N)c3)=NO2)cc1 (stereo not drawn) [O101, 3-(5-((8-(4-Cyanophenyl)-2,3-dihydro-4H-pyrido[4,3-b][1,4]oxazin-4-yl)sulfonyl)-4,5-dihydroisoxazol-3-yl)benzonitrile] | 0.0004 | 0.057 |
| O=C(c1ccccc1F)N1CCc2c(-c3ccc4[nH]ncc4c3)cncc21 [C50, (4-(1H-Indazol-5-yl)-2,3-dihydro-1H-pyrrolo[2,3-c]pyridin-1-yl)(2-fluorophenyl)methanone] | 0.097 | 1.27 |
